From publication PMC11264232, “Are the metal identity and stoichiometry of metal complexes important for colchicine site binding and inhibition of tubulin polymerization?” (Dalton Transactions (Cambridge, England : 2003), 2024)

How the values were obtained:
SK-MEL-2 = conditions: Melanoma
From the text: (§1) The proligands HL^1–HL^3 and their corresponding metal complexes 1–8 prepared in this study were subjected to evaluation of their anticancer potential, including selectivity towards specific types of cancer: leukemia, non-small cell lung (NSCLC), colon, central nervous system (CNS), melanoma, ovarian, renal, prostate and breast cancers, by the National Cancer Institute's Developmental Therapeutics Program. This evaluation involved the utilization of the NCI 60 human tumor cell line panel.[57] […] The GI50 data in μM are collected in Table 5.
(§2) The NCI-60 SRB assay was performed as described previously.[76]

SK-MEL-5 = conditions: Melanoma
From the text: as §1, §2

SK-MEL-28 = conditions: Melanoma
From the text: as §1, §2

MALME-3M = conditions: Melanoma
From the text: as §1, §2

UACC-257 = conditions: Melanoma
From the text: as §1, §2

MDA-MB-435 = conditions: Melanoma
From the text: as §1, §2

UACC-62 = conditions: Melanoma
From the text: as §1, §2

LOX IMVI = conditions: Melanoma
From the text: as §1, §2

M14 = conditions: Melanoma
From the text: as §1, §2

HT29 = test: NCI-60 five-dose screen; assay type: cell-based, human; conditions: Colon cancer
Procedure: (§3) The NCI-60 SRB assay was performed as described previously.[76] GI50 values (the concentration of the metal complex causing 50% growth inhibition), TGI value (the concentration of the complex causing 0% cell growth), and LC50 (the concentration of the complex causing 50% cell death) were interpolated from dose–response curves that were plots of percentage cell growth versus concentration of test compounds.

SK-OV-3 = test: NCI-60 five-dose screen; assay type: cell-based, human; conditions: Ovarian cancer
Procedure: as §3

HS 578T = test: NCI-60 five-dose screen; assay type: cell-based, human; conditions: Breast cancer
Procedure: as §3

SW-620 = test: NCI-60 five-dose screen; assay type: cell-based, human; conditions: Colon cancer
From the text: (§4) GI50 values (the concentration of the metal complex causing 50% growth inhibition), TGI value (the concentration of the complex causing 0% cell growth), and LC50 (the concentration of the complex causing 50% cell death) were interpolated from dose–response curves that were plots of percentage cell growth versus concentration of test compounds.

ACHN = test: NCI-60 five-dose screen; assay type: cell-based, human; conditions: Renal cancer
Procedure: as §3

CAKI-1 = test: NCI-60 five-dose screen; assay type: cell-based, human; conditions: Renal cancer
Procedure: as §3

NCI-H226 = test: NCI-60 five-dose screen; assay type: cell-based, human; conditions: Non-Small Cell Lung Cancer
Procedure: as §3

U251 = test: NCI-60 five-dose screen; assay type: cell-based, human; conditions: CNS cancer
Procedure: as §3

HOP-92 = test: NCI-60 five-dose screen; assay type: cell-based, human; conditions: Non-Small Cell Lung Cancer
Procedure: as §3

MDA-MB-468 = test: NCI-60 five-dose screen; assay type: cell-based, human; conditions: Breast cancer
Procedure: as §3

786-0 = test: NCI-60 five-dose screen; assay type: cell-based, human; conditions: Renal cancer
Procedure: as §3

A498 = test: NCI-60 five-dose screen; assay type: cell-based, human; conditions: Renal cancer
Procedure: as §3

[1] = test system: MRC-5 human lung fibroblast cells; test: MTT viability assay, 24 h; conditions: read-out: IC50 values MRC-5; MRC-5 fibroblasts, 24 h, MTT assay
Procedure: We wanted to compare the cytotoxicity of proligands HL^1–HL^3 and of their Co(III) and Fe(III) complexes 1, 2 and 4, 5 on cell lines originating from the same tissue, so human lung carcinoma A549 cells and lung fibroblast MRC-5 cells were subjected to 24 h treatments.
The biological effects of selected metal complexes (1, 2, 4 and 5) and of their proligands (HL^1, HL^2 and HL^3) were tested more extensively on A549 human lung adenocarcinoma cells and on MRC-5 human lung fibroblast cells. Both cell lines were obtained from ATCC and maintained in DMEM cell culture media containing 1.0 g L^−1 glucose (Biosera, Nuaille, France) complemented with 10% fetal bovine serum (FBS), 2 mM L-glutamine, 0.01% streptomycin and 0.005% penicillin and were cultured under standard conditions in a 37 °C incubator at 5% CO2 and 95% humidity. The viability of A549 and of MRC-5 fibroblast cells upon exposure to the selected metal–ligand complexes and ligands were evaluated by the MTT assay. For this, 10 000 cells per well were seeded into 96-well plates and left to grow. On the next day the cells were exposed to 0, 5, 10, 20, 40 or 80 μM of each compound or to an equivalent volume of DMSO for 24 h. After the treatments, cells were washed with PBS and then were incubated with 0.5 mg mL^−1 MTT reagent (Sigma-Aldrich, St Louis, Missouri, USA) for 1 h at 37 °C. Finally, 100 μL of DMSO (Molar Chemicals, Halásztelek, Hungary) was added to each well, and the absorbance of samples was measured at 570 nm using a Synergy HTX plate reader (BioTek, Winooski, Vermont, USA). The viability measurements were repeated three times using 3 independent biological replicates.

EKVX = test: NCI-60 five-dose screen; assay type: cell-based, human; conditions: Non-Small Cell Lung Cancer
Procedure: as §3

SN12C = test: NCI-60 five-dose screen; assay type: cell-based, human; conditions: Renal cancer
Procedure: as §3

SF-539 = test: NCI-60 five-dose screen; assay type: cell-based, human; conditions: CNS cancer
From the text: as §4

BT-549 = test: NCI-60 five-dose screen; assay type: cell-based, human; conditions: Breast cancer
Procedure: as §3

SNB-19 = test: NCI-60 five-dose screen; assay type: cell-based, human; conditions: CNS cancer
From the text: as §4

RPMI-8226 = test: NCI-60 five-dose screen; assay type: cell-based, human; conditions: Leukemia
Procedure: as §3

SR = test: NCI-60 five-dose screen; assay type: cell-based, human; conditions: Leukemia
Procedure: as §3

KM12 = test: NCI-60 five-dose screen; assay type: cell-based, human; conditions: Colon cancer
Procedure: as §3

NCI-H23 = test: NCI-60 five-dose screen; assay type: cell-based, human; conditions: Non-Small Cell Lung Cancer
Procedure: as §3

TK-10 = test: NCI-60 five-dose screen; assay type: cell-based, human; conditions: Renal cancer
From the text: as §4

DU-145 = test: NCI-60 five-dose screen; assay type: cell-based, human; conditions: Prostate cancer
From the text: as §4

NCI-H460 = test: NCI-60 five-dose screen; assay type: cell-based, human; conditions: Non-Small Cell Lung Cancer
Procedure: as §3

UO-31 = test: NCI-60 five-dose screen; assay type: cell-based, human; conditions: Renal cancer
From the text: as §4

[2] = test system: NCI 60 human tumor cell line panel; test: NCI-60 five-dose screen, average across panel; assay type: cell-based; conditions: five-dose 0.01–100 μM
Procedure: as §3

MCF7 = test: NCI-60 five-dose screen; assay type: cell-based, human; conditions: Breast cancer
From the text: as §4

A549/ATCC = test: NCI-60 five-dose screen; assay type: cell-based, human; conditions: Non-Small Cell Lung Cancer
Procedure: as §3

MDA-MB-231/ATCC = test: NCI-60 five-dose screen; assay type: cell-based, human; conditions: Breast cancer
Procedure: as §3

OVCAR-5 = test: NCI-60 five-dose screen; assay type: cell-based, human; conditions: Ovarian cancer
Procedure: as §3

Q: Which GI50 (SK-MEL-2) does the source give for `CC(=NN=C([S-])Nc1cc(C)c(O)c(C)c1)c1cccc(CN2CCOCC2)n1.CC(=NN=C([S-])Nc1cc(C)c(O)c(C)c1)c1cccc(CN2CCOCC2)n1.O=[N+]([O-])[O-].[Fe+3]` [Complex 4, [Fe^III(L^2)2]NO3] here?
A: The GI50 was 1670 nM.

Q: What about the GI50 (SK-MEL-5) of the same compound?
A: Its GI50 is 1100 nM.

Q: And the GI50 (SK-MEL-28)?
A: Its GI50 is 2380 nM.

Q: And the GI50 (MALME-3M)?
A: The GI50 was 1930 nM.

Q: And the GI50 (UACC-257)?
A: The GI50 was 4340 nM.

Q: And the GI50 (MDA-MB-435)?
A: Its GI50 is 2310 nM.

Q: And the GI50 (UACC-62)?
A: Its GI50 is 1860 nM.

Q: What about the GI50 (LOX IMVI) of the same compound?
A: Its GI50 is 2340 nM.

Q: And the GI50 (M14)?
A: Its GI50 is 2370 nM.

Q: What about the GI50 (HT29) of the same compound?
A: Its GI50 is 7120 nM.

Q: What about the GI50 (SK-OV-3) of the same compound?
A: The GI50 was 2700 nM.

Q: What about the GI50 (HS 578T) of the same compound?
A: Its GI50 is 1960 nM.

Q: And the GI50 (SW-620)?
A: Its GI50 is 2300 nM.

Q: What about the GI50 (ACHN) of the same compound?
A: The GI50 was 3100 nM.

Q: What about the GI50 (CAKI-1) of the same compound?
A: Its GI50 is 3740 nM.

Q: What about the GI50 (NCI-H226) of the same compound?
A: Its GI50 is 2540 nM.

Q: And the GI50 (U251)?
A: Its GI50 is 1970 nM.

Q: And the GI50 (HOP-92)?
A: Its GI50 is 2540 nM.

Q: What about the GI50 (MDA-MB-468) of the same compound?
A: The GI50 was 1560 nM.

Q: And the GI50 (786-0)?
A: The GI50 was 9560 nM.

Q: And the GI50 (A498)?
A: The GI50 was 19800 nM.

Q: And the IC50 [1]?
A: The IC50 was > 80000 nM.

Q: And the GI50 (EKVX)?
A: The GI50 was 2250 nM.

Q: And the GI50 (SN12C)?
A: Its GI50 is 2530 nM.

Q: And the GI50 (SF-539)?
A: The GI50 was 1960 nM.

Q: And the GI50 (BT-549)?
A: Its GI50 is 2190 nM.

Q: And the GI50 (SNB-19)?
A: The GI50 was 2760 nM.

Q: What about the GI50 (RPMI-8226) of the same compound?
A: The GI50 was 1810 nM.

Q: And the GI50 (SR)?
A: Its GI50 is 2430 nM.

Q: And the GI50 (KM12)?
A: Its GI50 is 2340 nM.

Q: What about the GI50 (NCI-H23) of the same compound?
A: Its GI50 is 2230 nM.

Q: And the GI50 (TK-10)?
A: Its GI50 is 4130 nM.

Q: And the GI50 (DU-145)?
A: Its GI50 is 6290 nM.

Q: What about the GI50 (NCI-H460) of the same compound?
A: The GI50 was 1980 nM.

Q: And the GI50 (UO-31)?
A: Its GI50 is 1660 nM.

Q: What about the “average TGI across all cell lines in the panel” value [2] of the same compound?
A: Its value is 18400 nM.

Q: What about the GI50 ([2]; read-out: average GI50 across all cell lines in the panel) of the same compound?
A: The GI50 was 2920 nM.

Q: What about the LC50 ([2]; read-out: average LC50 across all cell lines in the panel) of the same compound?
A: Its LC50 is 51200 nM.

Q: What about the GI50 (MCF7) of the same compound?
A: The GI50 was 1950 nM.

Q: What about the GI50 (A549/ATCC) of the same compound?
A: The GI50 was 2440 nM.

Q: What about the GI50 (MDA-MB-231/ATCC) of the same compound?
A: The GI50 was 2440 nM.

Q: What about the GI50 (OVCAR-5) of the same compound?
A: The GI50 was 2740 nM.
